Data set [1] can be described thus: log P determination with LC-MS under acidic conditions, pH 2.7. Type of data set: physicochemical. The settings on record: reverse phase HPLC column (C 18). On the procedure:
(§1) The determination of the log P values given in the above table and preparation examples is carried out in accordance with EEC directive 79/831 Annex V.A8 by HPLC (High Performance Liquid Chromatography) on a reverse phase column (C 18). Temperature: 43° C. The determination with LC-MS under acidic conditions is carried out at pH 2.7 with 0.1% aqueous formic acid and acetonitrile (contains 01% formic acid) as eluents; linear gradient from 10% acetonitrile to 95% acetonitrile. Calibration was is carried out with unbranched alkan-2-ones (with 3 to 16 carbon atoms) of known log P values (Determination of log P values by the retention times by linear interpolation between two sequential alkanones).

Data set [2] can be described thus: log P determination by HPLC on reverse phase column, pH 2.3. The settings on record: reverse phase HPLC column (C 18), reverse phase column (C 18), pH 2.3, 43° C. The format is physicochemical. On the procedure: as §1, with “is carried out” for “with LC-MS”, “conditions” for “conditions is carried out”, “2.3” for “2.7”, “phosphoric” for “formic”, “acetonitrile” for “acetonitrile (contains 01% formic acid)”, “of” for “from”

The test system of data set [3] is caterpillars of the fall army worm (Spodoptera frugiperda). Kind of data set: Spodoptera frugiperda test (spray treatment). Type of data set: in vivo. The conditions noted are these: for pest or weed control at 4 g/ha: Spodoptera frugiperda, 168 h, spray treatment, maize leaf sections, after 7 d, read-out: Death rate in % after 7d; for activity in Spodoptera frugiperda test (spray treatment): statement in words. On the procedure:
[table] For the preparation of a suitable active compound formulation 1 part by weight of the active compound is mixed with the above amounts of solvent and emulsifier and the concentrate is diluted to the desired concentration with water containing emulsifier. Maize leaf sections (Zea mays) are sprayed with an active compound preparation of the desired concentration and after drying infected with caterpillars of the fall army worm (Spodoptera frugiperda). After the desired time the activity in % is determined. Here 100% means that all caterpillars were killed; 0% means that no caterpillars were killed.

Data set [4] has as its system cotton aphid (Aphis gossypii). Kind of data set: Aphis gossypii test. Type of data set: in vivo. The settings on record: for Death rate in % after 7d: cotton leaves immersed; for activity in Aphis gossypii test: statement in words. The method, then:
[table] For the preparation of a suitable active compound formulation 1 part by weight of the active compound is mixed with the above amounts of solvent and emulsifier and the concentrate is diluted to the desired concentration with water containing emulsifier. Cotton leaves (Gossypium hirsutum) heavily infested with the cotton aphid (Aphis gossypii) are treated by immersion in the active compound preparation at the desired concentration. After the desired time the death rate in % is determined. Here 100% means that all aphids were killed; 0% means that no aphids were killed.

The subject of data set [5] is green peach aphid (Myzus persicae). Kind of data set: Myzus test (spray treatment). Type of data set: in vivo. The settings on record: for pest or weed control at 100 g/ha: Myzus persicae, in Brassica oleracea, 120 h, spray treatment, China cabbage slices, after 5 d, read-out: Death rate in % after 5d; for activity in Myzus test (spray treatment): statement in words. On the procedure: [table] For the preparation of a suitable active compound formulation 1 part by weight of the active compound is mixed with the above amounts of solvent and emulsifier and the concentrate is diluted to the desired concentration with water containing emulsifier. China cabbage slices (Brassica pekinensis) that are infected with all stages of the green peach aphid (Myzus persicae) are sprayed with an active compound preparation at the desired concentration. After the desired time the activity in % is determined. Here 100% means that all aphids were killed; 0% means that no aphids were killed.

The subject of data set [6] is larvae of the mustard leaf beetle (Phaedon cochleariae). Kind of data set: Phaedon test (spray treatment). The conditions noted are these: for pest or weed control at 100 g/ha: Phaedon cochleariae, 168 h, spray treatment, China cabbage slices, after 7 d, read-out: Death rate in % after 7d; for activity in Phaedon test (spray treatment): statement in words. The format is in vivo. The method, then: [table] For the preparation of a suitable active compound formulation 1 part by weight of the active compound is mixed with the above amounts of solvent and emulsifier and the concentrate is diluted to the desired concentration with water containing emulsifier. China cabbage slices (Brassica pekinensis) are sprayed with an active compound preparation of the desired composition and after drying infected with larvae of the mustard leaf beetle (Phaedon cochleariae). After the desired time the activity in % is determined. Here 100% means that all beetle larvae were killed; 0% means that no beetle larvae were killed.

Data set [7] relates to caterpillars of the diamond back moth (Plutella xylostella). As to the kind of experiment: Plutella test. The format is in vivo. The settings on record: for Death rate in % after 7d: cabbage leaves dipped; for activity in Plutella test: statement in words. On the procedure:
[table] For the preparation of a suitable active compound formulation 1 part by weight of the active compound is mixed with the above amounts of solvent and emulsifier and the concentrate is diluted to the desired concentration with water containing emulsifier. Cabbage leaves (Brassica oleracea) are treated by dipping into the active compound preparation of the desired concentration and infected with caterpillars of the diamond back moth (Plutella xylostella) while the leaves were still wet. After the desired time the death rate is determined as %. Here 100% means that all caterpillars were killed; 0% means no caterpillars were killed.

The test system of data set [8] is caterpillars of the beet army worm (Spodoptera exigua). Kind of data set: Spodoptera exigua test (resistant strain). Type of data set: in vivo. On the procedure: [table] For the preparation of a suitable active compound formulation 1 part by weight of the active compound is mixed with the above amounts of solvent and emulsifier and the concentrate is diluted to the desired concentration with water containing emulsifier. Cabbage leaves (Brassica oleracea) are treated by dipping in the active compound preparation at the desired concentration and infected with caterpillars of the beet army worm (Spodoptera exigua) while the leaves are still moist. After the desired time the death rate in % is determined. Here 100% means that all caterpillars were killed; 0% means that no caterpillars were killed.

Data set [9] concerns green peach aphid (Myzus persicae). As to the kind of experiment: Myzus persicae test; hydroponic treatment. The format is in vivo. The conditions noted are these: for Death rate in % after 6d: 20 ppm in water, hydroponic treatment, pea plant; for activity in Myzus persicae test; hydroponic treatment: statement in words. On the procedure:
[table] For the preparation of a suitable active compound formulation 1 part by weight of the active compound is mixed with the above amounts of solvent and emulsifier and the concentrate is diluted to the desired concentration with water. The active compound preparation is mixed with water. The concentration given refers to the amount of active compound per unit volume of water (mg/l=ppm). The treated water is placed in a vessel with a pea plant (Pisum sativum) which is then infection with the green peach aphid (Myzus persicae) is carried out. After the desired time the death rate in % is determined. Here 100% means that all aphids were killed, 0% means that no aphids were killed.

On to `Cc1sc(CO)cc1[N+](=O)[O-]` [(5-methyl-4-nitro-2-thienyl)methanol], for which, in data set [1], the chromatographic logP stood at 1.4.

Turning to `CSC[C@H](C)NC(=O)c1c(I)cccc1C(=O)Nc1ccc(Cn2nc(C(F)(F)F)cc2C(F)(F)F)nc1C` [Example 6], in data set [2], the chromatographic logP stood at 3.68. In [3], the pest or weed control at 4 g/ha came to 100% and the “activity in Spodoptera frugiperda test (spray treatment)” value (from here on “activity in Spodoptera frugiperda test”) is on record as “good activity”. The “Death rate in % after 7d” value in [4] (20 ppm) was 95%. In data set [4], the “activity in Aphis gossypii test” value is listed as “good activity”. Besides, in data set [5], the pest or weed control at 100 g/ha worked out at 100% and the “activity in Myzus test (spray treatment)” value is given as “good activity”. Also, in [6], the pest or weed control at 100 g/ha was 100% and the “activity in Phaedon test (spray treatment)” value (“activity in Phaedon test” below) is on record as “good activity”. Moreover, the “Death rate in % after 7d” value in data set [7] (0.8 ppm) is 100%. The “activity in Plutella test” value in data set [7] is on record as “good activity”.

`Cc1nc(Cn2nc(C(F)(F)F)cc2C(F)(F)F)ccc1NC(=O)c1cccc(Cl)c1C(=O)N[C@@H](C)CS(C)(=O)=O` [Example 9] showed a chromatographic logP in data set [2] of 2.69. Also, in [3], the pest or weed control at 4 g/ha is 100% and the “activity in Spodoptera frugiperda test” value is recorded as “good activity”. In addition, in [5], the pest or weed control at 100 g/ha turned out to be 100% and the “activity in Myzus test (spray treatment)” value is listed as “good activity”. In addition, in data set [8] (0.8 ppm, resistant strain, cabbage leaves dipped, after 7 d), the “Death rate in % after 7d” value turned out to be 80%. Moreover, the “activity in Spodoptera exigua test (resistant strain)” value in data set [8] (statement in words) is given as “good activity”. In [6], the pest or weed control at 100 g/ha turned out to be 100% and the “activity in Phaedon test” value is on record as “good activity”.

Compound `Cc1nc(Cn2nc(C(F)(F)F)nc2C(F)(F)F)ccc1NC(=O)c1cccc(Cl)c1C(=O)N[C@@H](C)CS(C)(=O)=O` [Example 16] gave a chromatographic logP in data set [2] of 2.56. Further, in data set [3], the pest or weed control at 4 g/ha was determined as 100% and the “activity in Spodoptera frugiperda test” value is reported as “good activity”. Further, the “Death rate in % after 7d” value in data set [4] (100 ppm) is 80%. Besides, the “activity in Aphis gossypii test” value in data set [4] is listed as “good activity”. In addition, in [5], the pest or weed control at 100 g/ha amounted to 100% and the “activity in Myzus test (spray treatment)” value was “good activity”. For the same compound, in data set [6], the pest or weed control at 100 g/ha was found to be 100% and the “activity in Phaedon test” value was “good activity”. Also, the “Death rate in % after 7d” value in [7] (0.16 ppm) was 100%. In addition, in data set [7], the “activity in Plutella test” value is recorded as “good activity”.

In turn, `Cc1nc(Cn2nc(C(F)(F)F)cc2C(F)(F)F)ncc1NC(=O)c1cccc(I)c1C(=O)N[C@@H](C)C[S+](C)[O-]` (stereo partly drawn) [Example 24] displayed a chromatographic logP in data set [2] of 2.27. Further, in data set [9], the “Death rate in % after 6d” value came out at 95% and the “activity in Myzus persicae test; hydroponic treatment” value is on record as “good activity”. In data set [3], the pest or weed control at 4 g/ha turned out to be 83% and the “activity in Spodoptera frugiperda test” value is “good activity”. Besides, in data set [5], the pest or weed control at 100 g/ha was determined as 100% and the “activity in Myzus test (spray treatment)” value is recorded as “good activity”.

With `Cc1nc(Cn2nc(C(F)(F)F)nc2C(F)(F)F)ncc1NC(=O)c1cccc(I)c1C(=O)N[C@@H](C)CS(C)(=O)=O` [Example 41], the chromatographic logP in data set [2] is 2.54. In data set [9], the “Death rate in % after 6d” value is recorded as 95% and the “activity in Myzus persicae test; hydroponic treatment” value is on record as “good activity”. Further, in [5], the pest or weed control at 100 g/ha turned out to be 90% and the “activity in Myzus test (spray treatment)” value was “good activity”.

Turning to `Cc1nc(Cn2nc(C(F)(F)F)cc2C(F)(F)F)ccc1N` [IIIa-1, 6-{[3,5-bis(trifluoromethyl)-1H-pyrazol-1-yl]methyl}-2-methylpyridin-3-amine], the chromatographic logP in [1] is 1.9.

`Cc1sc(Cn2nc(C(F)(F)F)nc2C(F)(F)F)cc1N` [IIIb-1, 5-{[3,5-bis(trifluoromethyl)-1H-1,2,4-triazol-1-yl]methyl}-2-methylthiophene-3-amine] registered a chromatographic logP in [1] of 2.2.

For the compound `Cc1nc(Cn2nc(C(F)(F)F)cc2C(F)(F)F)ccc1[N+](=O)[O-]` [IV-1, 6-{[3,5-bis(trifluoromethyl)-1H-pyrazol-1-yl]methyl}-2-methyl-3-nitropyridine], in data set [1], the chromatographic logP was 3.8.

`Cc1nc(CBr)ccc1[N+](=O)[O-]` [VII-1, 6-(bromomethyl)-2-methyl-3-nitropyridine] came in with a chromatographic logP in [1] of 2.2.

The values are drawn from patent publication US7884242B2, “N-heterocyclylphthaldiamides as insecticides” (Bayer CropScience AG, priority 2004, dated 2011).
